Source: PubChem BioAssay AID1963831 (Molecular Pharmacology Branch, DTP, NCI, 2024)
pIC50: −log10 of the molar value.

Test system: 889142-216-R-J1-PDC complex spheroid viability
Assay: Anticancer human tumor 889142-216-R-J1-PDC patient-derived bladder carcinoma cell line growth inhibition [POLQ]
Settings: for pIC50: curve of first compound; for viability, T/C: stronger effect = lower value
Summary of the method: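 Patient-derived tumour cells were co-cultured with HUVEC and mesenchymal stem cells as multicellular spheroids at 37 °C. They were treated with POLQ inhibitors (novobiocin, ART-558, RP6685) alone or combined with other agents. Top concentrations were at or near clinical Cmax (otherwise 10 microM; SN-38 at 1 microM), decreasing in half-log steps.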

[1] = second compound 0.0316 µM, first compound 0.0316 µM
[2] = second compound 0.0316 µM, first compound 0.1 µM
[3] = second compound 0.0316 µM, first compound 0.316 µM
[4] = second compound 0.0316 µM, first compound 1 µM
[5] = second compound 0.0316 µM, first compound 3.16 µM
[6] = second compound 0.0316 µM, first compound 10 µM
[7] = second compound 0.1 µM, first compound 0.0316 µM
[8] = second compound 0.1 µM, first compound 0.1 µM
[9] = second compound 0.1 µM, first compound 0.316 µM
[10] = second compound 0.1 µM, first compound 1 µM
[11] = second compound 0.1 µM, first compound 3.16 µM
[12] = second compound 0.1 µM, first compound 10 µM
[13] = second compound 0.316 µM, first compound 0.0316 µM
[14] = second compound 0.316 µM, first compound 0.1 µM
[15] = second compound 0.316 µM, first compound 0.316 µM
[16] = second compound 0.316 µM, first compound 1 µM
[17] = second compound 0.316 µM, first compound 3.16 µM
[18] = second compound 0.316 µM, first compound 10 µM
[19] = second compound 1 µM, first compound 0.0316 µM
[20] = second compound 1 µM, first compound 0.1 µM
[21] = second compound 1 µM, first compound 0.316 µM
[22] = second compound 1 µM, first compound 1 µM
[23] = second compound 1 µM, first compound 3.16 µM
[24] = second compound 1 µM, first compound 10 µM
[25] = second compound 3.16 µM, first compound 0.0316 µM
[26] = second compound 3.16 µM, first compound 0.1 µM
[27] = second compound 3.16 µM, first compound 0.316 µM
[28] = second compound 3.16 µM, first compound 1 µM
[29] = second compound 3.16 µM, first compound 3.16 µM
[30] = second compound 3.16 µM, first compound 10 µM
[31] = second compound 10 µM, first compound 0.0316 µM
[32] = second compound 10 µM, first compound 0.1 µM
[33] = second compound 10 µM, first compound 0.316 µM
[34] = second compound 10 µM, first compound 1 µM
[35] = second compound 10 µM, first compound 3.16 µM
[36] = second compound 10 µM, first compound 10 µM
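Also: spheroids exposed to compounds for seven days.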
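For viability, T/C in this document: 100% = DMSO vehicle control viability.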

CCc1cc2c(N3CCc4c(cc(Cn5ccnc5)cc4-c4cn(C)nc4C(F)(F)F)C3=O)ccnc2c(OC)n1 + Cc1cccc(N(C)C(=O)C2C(O)CCN2c2nc(C)cc(C(F)(F)F)c2C#N)c1
pIC50 (second compound 0.0316 µM): < 5.00 | pIC50 (second compound 0.1 µM): < 5.00 | pIC50 (second compound 0.316 µM): < 5.00 | pIC50 (second compound 1 µM): < 5.00 | pIC50 (second compound 3.16 µM): < 5.00 | pIC50 (second compound 10 µM): < 5.00 | viability, T/C [1]: 110% | viability, T/C [2]: 98.7% | viability, T/C [3]: 121% | viability, T/C [4]: 125% | viability, T/C [5]: 127% | viability, T/C [6]: 103% | viability, T/C [7]: 95.2% | viability, T/C [8]: 116% | viability, T/C [9]: 120% | viability, T/C [10]: 123% | viability, T/C [11]: 102% | viability, T/C [12]: 87.3% | viability, T/C [13]: 116% | viability, T/C [14]: 115% | viability, T/C [15]: 130% | viability, T/C [16]: 140% | viability, T/C [17]: 132% | viability, T/C [18]: 76.8% | viability, T/C [19]: 93% | viability, T/C [20]: 85.7% | viability, T/C [21]: 148% | viability, T/C [22]: 122% | viability, T/C [23]: 127% | viability, T/C [24]: 74.5% | viability, T/C [25]: 85.3% | viability, T/C [26]: 107% | viability, T/C [27]: 128% | viability, T/C [28]: 115% | viability, T/C [29]: 109% | viability, T/C [30]: 75.8% | viability, T/C [31]: 86.5% | viability, T/C [32]: 88% | viability, T/C [33]: 102% | viability, T/C [34]: 87.6% | viability, T/C [35]: 92.9% | viability, T/C [36]: 74.3%

C#Cc1c(F)ccc2cc(O)cc(-c3ncc4c(N5CC6CCC(C5)N6)nc(OCC56CCCN5CC(F)C6)nc4c3F)c12 (stereo not drawn) + Nc1ccc(C#CCN(C(=O)Cc2ncc(C(F)(F)F)cc2C(F)(F)F)c2ccc(F)cc2)nn1
pIC50 (second compound 0.0316 µM): < 5.00 | pIC50 (second compound 0.1 µM): 5.12 | pIC50 (second compound 0.316 µM): < 5.00 | pIC50 (second compound 1 µM): < 5.00 | pIC50 (second compound 3.16 µM): < 5.00 | pIC50 (second compound 10 µM): 5.12 | viability, T/C [1]: 101% | viability, T/C [2]: 102% | viability, T/C [3]: 75% | viability, T/C [4]: 74.6% | viability, T/C [5]: 84.8% | viability, T/C [6]: 43.9% | viability, T/C [7]: 103% | viability, T/C [8]: 119% | viability, T/C [9]: 85.3% | viability, T/C [10]: 79% | viability, T/C [11]: 86.6% | viability, T/C [12]: 38.9% | viability, T/C [13]: 115% | viability, T/C [14]: 99.4% | viability, T/C [15]: 73.5% | viability, T/C [16]: 116% | viability, T/C [17]: 69.8% | viability, T/C [18]: 49.7% | viability, T/C [19]: 115% | viability, T/C [20]: 102% | viability, T/C [21]: 95.8% | viability, T/C [22]: 76.7% | viability, T/C [23]: 65.3% | viability, T/C [24]: 52.5% | viability, T/C [25]: 94% | viability, T/C [26]: 98.1% | viability, T/C [27]: 90.3% | viability, T/C [28]: 131% | viability, T/C [29]: 70.3% | viability, T/C [30]: 63.8% | viability, T/C [31]: 120% | viability, T/C [32]: 81.6% | viability, T/C [33]: 108% | viability, T/C [34]: 75.5% | viability, T/C [35]: 90.5% | viability, T/C [36]: 38.8%

O=C(Nc1ccc(O)c(NS(=O)(=O)c2ccc(F)cc2)c1)c1ccc(-c2ccccc2)cc1 + Cc1cccc(N(C)C(=O)C2C(O)CCN2c2nc(C)cc(C(F)(F)F)c2C#N)c1
pIC50 (second compound 0.0316 µM): < 5.00 | pIC50 (second compound 0.1 µM): < 5.00 | pIC50 (second compound 0.316 µM): < 5.00 | pIC50 (second compound 1 µM): < 5.00 | pIC50 (second compound 3.16 µM): < 5.00 | pIC50 (second compound 10 µM): < 5.00 | viability, T/C [1]: 103% | viability, T/C [2]: 106% | viability, T/C [3]: 112% | viability, T/C [4]: 134% | viability, T/C [5]: 101% | viability, T/C [6]: 85.1% | viability, T/C [7]: 94.9% | viability, T/C [8]: 121% | viability, T/C [9]: 98.1% | viability, T/C [10]: 127% | viability, T/C [11]: 126% | viability, T/C [12]: 86.4% | viability, T/C [13]: 140% | viability, T/C [14]: 93.2% | viability, T/C [15]: 85.9% | viability, T/C [16]: 120% | viability, T/C [17]: 112% | viability, T/C [18]: 80.2% | viability, T/C [19]: 96.2% | viability, T/C [20]: 96.7% | viability, T/C [21]: 84% | viability, T/C [22]: 97.5% | viability, T/C [23]: 131% | viability, T/C [24]: 70.4% | viability, T/C [25]: 87.8% | viability, T/C [26]: 123% | viability, T/C [27]: 121% | viability, T/C [28]: 107% | viability, T/C [29]: 91.2% | viability, T/C [30]: 77.6% | viability, T/C [31]: 69.3% | viability, T/C [32]: 98.9% | viability, T/C [33]: 97% | viability, T/C [34]: 89.6% | viability, T/C [35]: 85.3% | viability, T/C [36]: 69.4%

Nc1ccn(C2OC(CO)C(O)C2(F)F)c(=O)n1 (stereo not drawn) + Nc1ccc(C#CCN(C(=O)Cc2ncc(C(F)(F)F)cc2C(F)(F)F)c2ccc(F)cc2)nn1
pIC50 (second compound 0.0316 µM): 6.63 | pIC50 (second compound 0.1 µM): 6.41 | pIC50 (second compound 0.316 µM): 6.44 | pIC50 (second compound 1 µM): 6.53 | pIC50 (second compound 3.16 µM): 5.47 | pIC50 (second compound 10 µM): 5.28 | viability, T/C [1]: 74.1% | viability, T/C [2]: 56.1% | viability, T/C [3]: 46% | viability, T/C [4]: 45.2% | viability, T/C [5]: 40.9% | viability, T/C [6]: 35.9% | viability, T/C [7]: 62.8% | viability, T/C [8]: 57.8% | viability, T/C [9]: 48.9% | viability, T/C [10]: 47.2% | viability, T/C [11]: 38.8% | viability, T/C [12]: 34.5% | viability, T/C [13]: 61.8% | viability, T/C [14]: 56.1% | viability, T/C [15]: 50.9% | viability, T/C [16]: 44% | viability, T/C [17]: 45.6% | viability, T/C [18]: 39.6% | viability, T/C [19]: 69.8% | viability, T/C [20]: 55.6% | viability, T/C [21]: 47% | viability, T/C [22]: 48.5% | viability, T/C [23]: 43.5% | viability, T/C [24]: 36.7% | viability, T/C [25]: 56.4% | viability, T/C [26]: 60.7% | viability, T/C [27]: 60% | viability, T/C [28]: 55.7% | viability, T/C [29]: 49.5% | viability, T/C [30]: 39.7% | viability, T/C [31]: 88.9% | viability, T/C [32]: 73.6% | viability, T/C [33]: 69.5% | viability, T/C [34]: 51.7% | viability, T/C [35]: 55.7% | viability, T/C [36]: 46.5%
